Test results reported in patent US9902761B2, “Polypeptides, nucleic acids and uses thereof” (AGENCY FOR SCIENCE, TECHNOLOGY AND RESEARCH, priority 2013, dated 2018).
Numbering of substitutions follows the chain as printed.

Experiments:
hESCs [1] = experiment: survival of hESCs after single-cell dissociation (anoikis); assay type: cell-based, human; conditions: with or without Y-27632
Method: (§1) hESCs were dissociated into single cells using Accutase (Stem Cell Technologies) and plated in the presence of 10 μM Y-27632 (ROCK inhibitor) for 12 hours (Watanabe et al., 2007).

zebrafish aplnrb = target: T1, zebrafish aplnrb (Danio rerio, UniProt A0T2N3); experiment: AP-ELA binding assay, 293T cells overexpressing receptor; conditions: HEK293T overexpression
T1 sequence (A0T2N3 1-359): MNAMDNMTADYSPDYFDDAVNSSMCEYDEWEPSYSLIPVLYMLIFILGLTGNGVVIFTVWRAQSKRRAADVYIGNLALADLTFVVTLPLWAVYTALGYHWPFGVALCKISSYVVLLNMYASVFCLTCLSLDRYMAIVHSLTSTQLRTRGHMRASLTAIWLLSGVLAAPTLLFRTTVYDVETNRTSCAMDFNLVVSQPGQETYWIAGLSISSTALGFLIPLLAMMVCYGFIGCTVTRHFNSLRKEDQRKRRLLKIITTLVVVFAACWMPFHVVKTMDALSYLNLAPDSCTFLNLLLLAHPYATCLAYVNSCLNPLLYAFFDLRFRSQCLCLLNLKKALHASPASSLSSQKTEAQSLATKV

hESCs [2] = experiment: AP-ELA cell surface binding assay on hESCs; design: species or system human; conditions: undifferentiated hESCs
aplnrb^grinch (W90L) = target: T2, aplnrb^grinch (W90L) (Danio rerio, UniProt A0T2N3, W90L); experiment: AP-ELA binding assay, 293T cells overexpressing receptor; conditions: 293T overexpression
T2 sequence (A0T2N3 1-359 W90L): T1 sequence (A0T2N3 1-359) with W90L

zebrafish aplnra = target: T3, zebrafish aplnra (Danio rerio, UniProt Q7SZP9); experiment: as above; conditions: HEK293T overexpression
T3 sequence (Q7SZP9 1-362): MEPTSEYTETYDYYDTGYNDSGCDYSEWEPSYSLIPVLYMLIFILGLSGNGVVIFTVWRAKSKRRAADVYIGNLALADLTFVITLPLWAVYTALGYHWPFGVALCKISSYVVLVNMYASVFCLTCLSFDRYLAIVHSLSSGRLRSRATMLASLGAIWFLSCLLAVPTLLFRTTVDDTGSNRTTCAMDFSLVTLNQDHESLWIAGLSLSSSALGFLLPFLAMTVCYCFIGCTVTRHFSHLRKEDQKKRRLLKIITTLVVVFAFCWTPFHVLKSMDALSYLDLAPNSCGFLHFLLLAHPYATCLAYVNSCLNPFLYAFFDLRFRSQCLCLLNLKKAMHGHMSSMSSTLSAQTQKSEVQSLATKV

hESCs [3] = experiment: qPCR of mesendodermal markers in hESCs; assay type: cell-based, human
Method: After the indicated time periods, embryoid bodies were harvested and RNA extracted using RNeasy kit ([…]). qPCR reactions were carried out using either Universal FastSlart SYBR Green Mastermix (Roche) or using the Universal Probe Library system (Roche) in tandem with Taqman Fast Mastermix (Invitrogen). Primer sequences can be found in Table E1.

hESCs [4] = experiment: xCELLigence real time growth assay, cell counts and colony size of hESCs; assay type: cell-based, human
Method: Feeder-free hESCs were cultured in clumps in mTSER1 (Stem Cell Technologies) on Matrigel (BD 354277).
as §1
For xCELLigence real time growth assays, 4000 cells were plated per well of an E-plate (ACEA Biosciences) with media changes every 48 hours.
Recombinant ELA was added at 2.5 uM (or 10 μg/ml). Cell cycle studies were performed with Click-iT EDU staining kit (Invitrogen) and by performing a double thymidine block (2.5 mM thymidine; 16 hour block, 8 hour release, 16 hour block) followed by DAPI staining for DNA content at the indicated times following release.

hESCs [5] = experiment: protein synthesis by incorporation of fluorescently-labeled amino acids; assay type: cell-based, human
hESCs [6] = experiment: stress-induced apoptosis of hESCs by ionizing radiation; assay type: cell-based, human
[7] = teratoma analysis after subcutaneous injection of hESCs; assay type: in vivo, SCID mice; conditions: 10 million cells subcutaneously, day 60
Method: Shef4TetR5-shELA cells were cultured in the presence (shELA) or absence (Control) of 20 ng/ml doxycycline for 3 passages (4 days/passage). Cells were harvested with Accutase (Stemcell Technologies) and resuspended in 1 part Matrigel to 2 parts mTSERL. 10 million cells in 200 μl were injected subcutaneously into the right hind paunches of SCID mice. shELA-injected mice were fed doxycycline (20 μg/ml) for 3 weeks following injection. Mice were sacrificed 60 days post-injection for tumor analysis.

hESCs [8] = experiment: stress-induced apoptosis of hESCs by ActinomycinD; assay type: cell-based, human
hESCs [9] = experiment: stress-induced apoptosis of hESCs by ActinomycinD; assay type: cell-based, human; conditions: for resistance or sensitivity to ActinomycinD: nanomolar concentrations of ActinomycinD
Method: To induce apoptosis, hESCs were treated with the indicated doses of ActinomycinD (Sigma) or ionizing radiation followed by Aqueous One Cell Titer (Promega) or CASPASE GLO3/7 (Promega) assays 12 hours post-treatment.

hESCs [10] = experiment: directed endoderm differentiation of hESCs, SOX17+ cell count; assay type: cell-based, human
Method: Shef4TetR5-shELA and Shef4TetR5-shβ2M cells were cultured in the presence (shELA and shβ2M respectively) or absence (Control) of 20 ng/ml doxycycline for 1 passage (4 days) and dissociated with Accutase. […] 24 hours later, the media was changed to Endo differentiation media 1 [RPMI 1640 (Gibco), 1× B-27 supplement (Invitrogen), 50 ng/ml of Activin A (R&D Systems), 25 ng/ml BMP4 (R&D Systems) and 50 ng/ml bFGF (Invitrogen)] for 3 days. On day 3, the media was changed to Endo differentiation media 2 (RPMI 1640, B27, 50 ng/ml Activin) for 2 more days of culture. Rescue experiments were performed by adding 2.5 uM of ELA peptide to Shef4TetR5-shELA concurrently with doxycycline up to day 3, when the ELA peptide is no longer necessary as judged by downregulation of endogenous ELA.
On day 5, cells were fixed with 4% paraformaldehyde and stained with α SOX17 (AF1924, R&D Systems) and DAPI. For each well, three different randomly selected fields were imaged and the number of nuclei staining positive of SOXI 7 and DAPI were counted using a custom macro in ImageJ. A minimum of two wells per condition was used for each experiment, and a minimum of two independent experiments were performed to generate the results.

hESCs [11] = experiment: pluripotency markers and colony morphology of knockdown hESCs; assay type: cell-based, human; conditions: prolonged depletion
Method: To generate stable inducible knockdown of ELA in hESCs, the sequence […] (SEQ ID NO: 132) targeting the 3′UTR of ELA was cloned into pSUPERIOR (Oliogoengine) and nulcleofected (Lonza) into Shef4TetR5 hESCs (Zafarana et al., 2009). Neomycin-resistant cells were clonally expanded and assayed for doxycycline (20 ng/ml)-inducible knockdown. Data from one representative clone (ShefTetR5 shELA) are shown in this paper. Shef4TetR5 shβ2M were derived as previously described (Zafarana et al., 2009). Unless otherwise stated, ELA knockdown was induced on Day −4 with 20 ng/ml doxycycline to generate shELA cells.

hESCs [12] = assay type: cell-based, human; conditions: data not shown
[13] = system: ELA processing and secretion; experiment: Xenopus secretion assay of human ELA; assay type: cell-based, Xenopus laevis; conditions: increasing amounts of inhibitor
Method: ZFNs were purchased from Sigma-Aldrich. […] of mRNAs encoding the ZFN pair were injected into 1-cell stage embryos. ZFN binding sites within exon 1 are as follows: 5′_[…]_3′ (SEQ ID NO: 133) and 5′_[…] 3′ (SEQ 1D NO: 134). Sequencing primers flanking the mutation sites are: forward 5′_[…]_3′ (SEQ ID NO: 135), reverse 5′_[…] 3′ (SEQ ID NO: 136). For ela overexpression, 200 pg of SP6-transcribed zebrafish ela capped mRNA (Applied Biosystems) was injected into 1-cell stage zebrafish embryos. Translation blocking MOs used for aplnra and aplnrb have been described previously (Scott et al., 2007; Zeng et al., 2007) and were purchased from Gene tools (Oregon, USA). Embryos were injected at 1-cell stage with a combination of 1 ng of aplnra MO and 0.5 ng of apinrb MO (Zeng et al., 2007). Information on probes used for q-PCR and WISH can be found in Tables E1 and E2. Zebrafish embryos at 100% epiboly were dechorionated and processed for western blotting as previously described (Link et al., 2006). For the Xenopus secretion assay, 16 ng of SP6-transcribed human ELA capped mRNA (Applied Biosystems) was injected into each cell of 4-cell stage embryos. At stage 8, embryos were dechorionated and dissociated in CMFM medium with 5 mM EDTA. […]

hESCs [14] = experiment: insulin replacement assay in hESCs; assay type: cell-based, human; conditions: SHEF4 and HESC3 hESCs, 24 hours of growth without INSULIN
Method: For insulin replacement assays, SHEF4 or HESC3 hESCs were cultured in TSER-E5 (Stem Cell Technologies) supplemented with TGF-β (5 ng/ml, R&D Systems) and bFGF (100 ng/ml, Invitrogen) with and without INSULIN (10 ug/ml, SIGMA).

PI3K/AKT pathway = experiment: signaling pathway assay in starved hESCs pulsed with peptide (SDS-PAGE, western); assay type: cell-based, human; conditions: 5 uM peptide after 2-hour starvation
Method: To assay the signaling pathway activated by ELA, hESCs were dissociated and plated in mTSER1 for 48 hours, followed by a 2-hour starvation in DMEM/F12. Synthetically produced ELA or ELA^RR>GG peptides, dialyzed against PBS to remove any residual synthesis buffers, were added at a final concentration of 5 uM (or as indicate(D) for the indicated period of time. Where applicable, PI3K inhibitors LY294002 (5 uM) and Wortmannin (1 uM) were added 30 minutes before pulsing with ELA peptides. Cells were lysed with PhosphoSafe™ (Millipore) for SDS-PAGE.

ELA = target: T4, ELA (Homo sapiens, UniProt P0DMC3); experiment: extracellular neutralizing assay with affinity purified anti-ELA antibodies in hESC culture; assay type: cell-based; conditions: peptide added with α N antibodies
T4 construct: ELA is an endogenous secreted peptide that is essential for the survival and self-renewal of hESCs; endogenous in cells; host or cells: hESCs (Shef4 / Shef4TetR5)
T4 sequence (P0DMC3 23-54): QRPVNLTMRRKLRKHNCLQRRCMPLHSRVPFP

Molecule: C[C@@H](N)[C@H]1CC[C@H](C(=O)Nc2ccncc2)CC1 [ROCK inhibitor, Y-27632, reference compound]
- survival following dissociation (anoikis) (hESCs [1]): protects against anoikis

Molecule: AP-ELA: mature C-terminal 32-mer of ELA cloned in frame with alkaline phosphatase, secreted from 293T cells
- cell-surface binding of AP-ELA to aplnrb (zebrafish aplnrb): sufficient to afford cell-surface binding
- binding of AP-ELA to hESCs (hESCs [2]): readily bind
- binding of AP-ELA to aplnrb^grinch (aplnrb^grinch (W90L)): unable to bind AP-ELA
- cell-surface binding of AP-ELA to aplnra (zebrafish aplnra): sufficient to afford cell-surface binding

Molecule: GTGATTCTCGTGCCTCAAC (expressed or natural sequence) [shELA, doxycycline-inducible shRNA targeting the 3′UTR of ELA in Shef4TetR5 hESCs]
- expression of mesendodermal genes GATA6, GATA4, FOXA2, EOMES and BRA (hESCs [3]): conversely downregulated
- growth rates of knockdown hESCs seeded as single cells (hESCs [4]; real-time cell index, compared to control and shβ2M hESCs): markedly reduced growth rates
- colony size of knockdown hESCs (hESCs [4]; relative to shβ2M hESCs): less than half the size
- protein synthesis (hESCs [5]): reduced protein synthesis
- survival following dissociation (anoikis) (hESCs [1]): do not survive single-cell dissociation
- sensitivity to gamma irradiation relative to control (hESCs [6]): twice as sensitive
- activated CASPASE 3 after irradiation (hESCs [6]; 3 hours after 1 Gray of γ irradiation): higher levels of activated CASPASE 3
- teratoma formation [7]: did not form teratomas
- levels of MCL-1 (hESCs [8]): lower levels
- BAX localisation (hESCs [8]; mitochondria versus cytoplasm): higher levels of BAX in the mitochondria
- activated CASPASE3/7 and CASPASE 9 after ActinomycinD (hESCs [9]): increased levels of activated CASPASE3/7
- resistance or sensitivity to ActinomycinD (hESCs [9]): more sensitive compared to control
- reduction over control in the number of SOX17+ cells (hESCs [10]; 5 days directed differentiation, FIG. 6F): 45%
- reduction of SOX17 expression (hESCs [10]; directed differentiation, control, shELA and shβ2M, FIG. 13C): 35%
- pluripotency markers POU5F1, NANOG, SSEA3 and TRA-1-60 (hESCs [11]): downregulation of pluripotency markers

Molecule: APELIN-13
- effect on hESCs (hESCs [12]): no effect on hESCs

Molecule: C[C@H]1CCC/C=C/[C@@H]2C[C@H](O)C[C@H]2[C@H](O)/C=C/C(=O)O1 [Brefeldin A]
- ELA processing and secretion [13]: able to block ELA processing and secretion

Molecule: ELA^RR>GG: doubly mutated ELA mutant peptide (R31G, R32G), non-signaling (QRPVNLTMGGKLRKHNCLQRRCMPLHSRVPFP)
- growth of hESCs relative to untreated cells (hESCs [4]; cell counts, colony size, real-time cell indices, peptide 2.5 uM (10 μg/ml)): without effect
- rescue in cell viability in the absence of INSULIN (hESCs [14]): exerted no effects
- resistance or sensitivity to ActinomycinD (hESCs [9]): no protective effect
- phosphorylation of AKT at serine 473 and PRAS40 at threonine 246 (PI3K/AKT pathway): not observed
- competition of the neutralizing activity of the antibody by peptide (ELA): competed out
